Source: US20250250230A1, “HETEROCYCLIC COMPOUND” (TAKEDA PHARMACEUTICAL COMPANY LIMITED, priority 2022, published 2025)

Target: T1, human orexin type 2 receptor (Homo sapiens, UniProt O43614)
T1 construct: expressed in transfected cells
T1 sequence (O43614 1-444): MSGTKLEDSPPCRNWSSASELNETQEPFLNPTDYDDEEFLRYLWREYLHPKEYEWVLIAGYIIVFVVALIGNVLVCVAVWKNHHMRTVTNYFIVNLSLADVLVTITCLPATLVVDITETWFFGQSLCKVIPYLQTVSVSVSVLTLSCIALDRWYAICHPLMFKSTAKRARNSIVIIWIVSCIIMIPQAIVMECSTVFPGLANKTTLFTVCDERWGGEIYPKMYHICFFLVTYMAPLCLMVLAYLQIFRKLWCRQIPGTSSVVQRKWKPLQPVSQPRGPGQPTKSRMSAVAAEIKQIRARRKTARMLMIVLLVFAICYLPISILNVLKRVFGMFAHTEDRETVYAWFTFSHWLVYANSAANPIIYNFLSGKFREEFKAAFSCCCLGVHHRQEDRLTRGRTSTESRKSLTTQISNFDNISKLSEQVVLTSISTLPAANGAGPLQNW
Experiment: Measurement of orexin type 2 receptor agonist activity (calcium fluorescence, Fluo-4 AM, FDSS)
Assay type: cell-based
Conditions: test compound 3 μM; CHO cells expressing human OX2 receptor; DMSO = 0%, orexin A (human) = 100%
Outline: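 Agonist response scaled between vehicle (0%) and human orexin A at 10 nM final (100%), from 2-min kinetic Fluo-4 fluorescence reads. Stable hOX2R CHO-K1 clone, dye-loaded in HBSS/20 mM HEPES/0.1% BSA with 1.25 mM probenecid before compound addition.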

## CC1(NS(C)(=O)=O)CCN(C(=O)[C@@H]2C[C@@]2(F)c2ccccc2-c2c(F)cccc2F)C1 (stereo partly drawn) [Example 344, N-{(3R)-1-[(1S,2S)-2-(2′,6′-difluoro[1,1′-biphenyl]-2-yl)-2-fluorocyclopropane-1-carbonyl]-3-methylpyrrolidin-3-yl}methanesulfonamide, or N-{(3S)-1-[(1S,2S)-2-(2′,6′-difluoro[1,1′-biphenyl]-2-yl)-2-fluorocyclopropane-1-carbonyl]-3-methylpyrrolidin-3-yl}methanesulfonamide]
  OX2R agonist activity (3 μM, %): 95%

## COCC1(C(=O)N2CC[C@H](NS(C)(=O)=O)C2)CC1c1ccccc1-c1c(F)cccc1F (stereo partly drawn) [Example 346, N-{(3S)-1-[(1R,2S)-2-(2′,6′-difluoro[1,1′-biphenyl]-2-yl)-1-(methoxymethyl)cyclopropane-1-carbonyl]pyrrolidin-3-yl}methanesulfonamide, or N-{(3S)-1-[(1S,2R)-2-(2′,6′-difluoro[1,1′-biphenyl]-2-yl)-1-(methoxymethyl)cyclopropane-1-carbonyl]pyrrolidin-3-yl}methanesulfonamide]
  OX2R agonist activity (3 μM, %): 100%

## COCC1(C(=O)N2CC[C@H]2CNS(C)(=O)=O)CC1c1ccccc1-c1c(F)cccc1F (stereo partly drawn) [Example 347, N-({(2S)-1-[(1R,2S)-2-(2′,6′-difluoro[1,1′-biphenyl]-2-yl)-1-(methoxymethyl)cyclopropane-1-carbonyl]azetidin-2-yl}methyl)methanesulfonamide, or N-({(2S)-1-[(1S,2R)-2-(2′,6′-difluoro[1,1′-biphenyl]-2-yl)-1-(methoxymethyl)cyclopropane-1-carbonyl]azetidin-2-yl}methyl)methanesulfonamide]
  OX2R agonist activity (3 μM, %): 95%

## CS(=O)(=O)N[C@@H]1CN(C(=O)[C@@H]2C[C@@]2(F)c2ccccc2-c2c(F)cccc2F)CC[C@H]1O [Example 348, N-{(3R,4R)-1-[(1S,2S)-2-(2′,6′-difluoro[1,1′-biphenyl]-2-yl)-2-fluorocyclopropane-1-carbonyl]-4-hydroxypiperidin-3-yl}methanesulfonamide]
  OX2R agonist activity (3 μM, %): 97%

## CO[C@H]1C[C@H](NS(C)(=O)=O)CN(C(=O)[C@@H]2C[C@H]2c2ccccc2-c2c(F)cccc2F)C1 [Example 349, N-{(3S,5S)-1-[(1R,2R)-2-(2′,6′-difluoro[1,1′-biphenyl]-2-yl)cyclopropane-1-carbonyl]-5-methoxypiperidin-3-yl}methanesulfonamide]
  OX2R agonist activity (3 μM, %): 97%

## CO[C@@H]1CCN(C(=O)[C@@H]2C[C@H]2c2ccccc2-c2c(F)cccc2F)C[C@H]1NS(C)(=O)=O [Example 350, N-{(3R,4R)-1-[(1R,2R)-2-(2′,6′-difluoro[1,1′-biphenyl]-2-yl)cyclopropane-1-carbonyl]-4-methoxypiperidin-3-yl}methanesulfonamide]
  OX2R agonist activity (3 μM, %): 102%

## CS(=O)(=O)NC[C@@H]1CCN1C(=O)[C@@H]1C[C@@]1(F)c1ccccc1-c1c(F)cccc1F [Example 352, N-({(2S)-1-[(1S,2S)-2-(2′,6′-difluoro[1,1′-biphenyl]-2-yl)-2-fluorocyclopropane-1-carbonyl]azetidin-2-yl}methyl)methanesulfonamide]
  OX2R agonist activity (3 μM, %): 96%

## CS(=O)(=O)NC[C@@H]1CCN1C(=O)[C@@H]1C[C@H]1c1ccccc1-c1c(F)cccc1F [Example 355, N-({(2S)-1-[(1R,2R)-2-(2′,6′-difluoro[1,1′-biphenyl]-2-yl)cyclopropane-1-carbonyl]azetidin-2-yl}methyl)methanesufonamide]
  OX2R agonist activity (3 μM, %): 94%

## CC1(C(=O)N2CC[C@H]2CNS(C)(=O)=O)CC1(F)c1ccccc1-c1c(F)cccc1F (stereo partly drawn) [Example 356, N-({(2S)-1-[(1R,2S)-2-(2′,6′-difluoro[1,1′-biphenyl]-2-yl)-2-fluoro-1-methylcyclopropane-1-carbonyl]azetidin-2-yl}methyl)methanesulfonamide, or N-({(2S)-1-[(1S,2R)-2-(2′,6′-difluoro[1,1′-biphenyl]-2-yl)-2-fluoro-1-methylcyclopropane-1-carbonyl]azetidin-2-yl}methyl)methanesulfonamide]
  OX2R agonist activity (3 μM, %): 84%

## C[C@@H]1CN(C(=O)[C@@H]2C[C@@]2(F)c2ccccc2-c2c(F)cccc2F)[C@H]1CNS(C)(=O)=O [Example 357, N-({(2R,3R)-1-[(1S,2S)-2-(2′,6′-difluoro[1,1′-biphenyl]-2-yl)-2-fluorocyclopropane-1-carbonyl]-3-methylazetidin-2-yl}methyl)methanesulfonamide]
  OX2R agonist activity (3 μM, %): 96%

## CS(=O)(=O)NCC12CC(C1)N(C(=O)[C@@H]1C[C@@]1(F)c1ccccc1-c1c(F)cccc1F)C2 [Example 359, N-({2-[(1S,2S)-2-(2′,6′-difluoro[1,1′-biphenyl]-2-yl)-2-fluorocyclopropane-1-carbonyl]-2-azabicyclo[2.1.1]hexan-4-yl}methyl)methanesulfonamide]
  OX2R agonist activity (3 μM, %): 94%

## CCS(=O)(=O)NC[C@@H]1[C@H](C)CN1C(=O)[C@@H]1C[C@@]1(F)c1ccccc1-c1c(F)cccc1F [Example 360, N-({(2S,3R)-1-[(1S,2S)-2-(2′,6′-difluoro[1,1′-biphenyl]-2-yl)-2-fluorocyclopropane-1-carbonyl]-3-methylazetidin-2-yl}methyl)ethanesulfonamide]
  OX2R agonist activity (3 μM, %): 103%

## CCS(=O)(=O)NC(C)[C@H]1CCN1C(=O)[C@@H]1C[C@H]1c1ccccc1-c1c(F)cccc1F (stereo partly drawn) [Example 361, N-[(1R)-1-{(2R)-1-[(1R,2R)-2-(2′,6′-difluoro[1,1′-biphenyl]-2-yl)cyclopropane-1-carbonyl]azetidin-2-yl}ethyl]ethanesulfonamide, or N-[(1S)-1-{(2R)-1-[(1R,2R)-2-(2′,6′-difluoro[1,1′-biphenyl]-2-yl)cyclopropane-1-carbonyl]azetidin-2-yl}ethyl]ethanesulfonamide]
  OX2R agonist activity (3 μM, %): 90%

## CCS(=O)(=O)NC[C@@H]1CCN1C(=O)[C@@H]1C[C@H]1c1ccccc1-c1c(F)cccc1F [Example 362, N-({(2S)-1-[(1R,2R)-2-(2′,6′-difluoro[1,1′-biphenyl]-2-yl)cyclopropane-1-carbonyl]azetidin-2-yl}methyl)ethanesulfonamide]
  OX2R agonist activity (3 μM, %): 89%

## CCS(=O)(=O)NC(C)[C@@H]1CCN1C(=O)[C@@H]1C[C@@]1(F)c1ccccc1-c1c(F)cccc1F (stereo partly drawn) [Example 363, N-[(1R)-1-{(2S)-1-[(1S,2S)-2-(2′,6′-difluoro[1,1′-biphenyl]-2-yl)-2-fluorocyclopropane-1-carbonyl]azetidin-2-yl}ethyl]ethanesulfonamide, or N-[(1S)-1-{(2S)-1-[(1S,2S)-2-(2′,6′-difluoro[1,1′-biphenyl]-2-yl)-2-fluorocyclopropane-1-carbonyl]azetidin-2-yl}ethyl]ethanesulfonamide]
  OX2R agonist activity (3 μM, %): 98%

## C[C@H]1CN(C(=O)[C@@H]2C[C@@]2(F)c2ccccc2-c2c(F)cccc2F)C[C@@H](CNS(C)(=O)=O)O1 [Example 364, N-({(2S,6S)-4-[(1S,2S)-2-(2′,6′-difluoro[1,1′-biphenyl]-2-yl)-2-fluorocyclopropane-1-carbonyl]-6-methylmorpholin-2-yl}methyl)methanesulfonamide]
  OX2R agonist activity (3 μM, %): 88%

## CS(=O)(=O)NC[C@@H]1CCN1C(=O)C1(CO)CC1c1ccccc1-c1c(F)cccc1F (stereo partly drawn) [Example 365, N-({(2S)-1-[(1R,2S)-2-(2′,6′-difluoro[1,1′-biphenyl]-2-yl)-1-(hydroxymethyl)cyclopropane-1-carbonyl]azetidin-2-yl}methyl)methanesulfonamide, or N-({(2S)-1-[(1S,2R)-2-(2′,6′-difluoro[1,1′-biphenyl]-2-yl)-1-(hydroxymethyl)cyclopropane-1-carbonyl]azetidin-2-yl}methyl)methanesulfonamide]
  OX2R agonist activity (3 μM, %): 103%

## CS(=O)(=O)NC[C@@H]1CCN1C(=O)C1CC1c1c(-c2c(F)cccc2F)csc1F (stereo partly drawn) [Example 367, N-{[(2S)-1-{(1R,2R)-2-[4-(2,6-difluorophenyl)-2-fluorothiophen-3-yl]cyclopropane-1-carbonyl}azetidin-2-yl]methyl}methanesulfonamide, or N-{[(2S)-1-{(1S,2S)-2-[4-(2,6-difluorophenyl)-2-fluorothiophen-3-yl]cyclopropane-1-carbonyl}azetidin-2-yl]methyl}methanesulfonamide]
  OX2R agonist activity (3 μM, %): 93%

## CS(=O)(=O)N[C@H]1CCN(C(=O)C2CC2c2c(-c3c(F)cccc3F)csc2F)C1 (stereo partly drawn) [Example 368, N-[(3S)-1-{(1R,2R)-2-[4-(2,6-difluorophenyl)-2-fluorothiophen-3-yl]cyclopropane-1-carbonyl}pyrrolidin-3-yl]methanesulfonamide, or N-[(3S)-1-{(1S,2S)-2-[4-(2,6-difluorophenyl)-2-fluorothiophen-3-yl]cyclopropane-1-carbonyl}pyrrolidin-3-yl]methanesulfonamide]
  OX2R agonist activity (3 μM, %): 97%
